Source: ChEMBL document CHEMBL1629634, “Postantibiotic effect of tigecycline against 14 gram-positive organisms” (Antimicrob Agents Chemother, 2009)
Values after ≈ are worked out from the molar mass of the structure shown.

What was measured:
Streptococcus pneumoniae [1] = assay: Antibacterial activity against penicillin-intermediate Streptococcus pneumoniae assessed as post-antibiotic sub-MIC effect at 0.2 times MIC concentration pretreated with 10 times MIC concentration for 1 hr followed by 1:1000 dilution by viable plate count method; format: functional
Streptococcus pneumoniae [2] = assay: Antibacterial activity against penicillin-resistant Streptococcus pneumoniae assessed as post-antibiotic sub-MIC effect at 0.2 times MIC concentration pretreated with 10 times MIC concentration for 1 hr followed by 1:1000 dilution by viable plate count method; format: functional
Enterococcus faecalis [3] = assay: Antibacterial activity against vancomycin-resistant Enterococcus faecalis assessed as post-antibiotic sub-MIC effect at 0.2 times MIC concentration pretreated with 10 times MIC concentration for 1 hr followed by 1:1000 dilution by viable plate count method; format: functional
Haemophilus influenzae [4] = assay: Antibacterial activity against amoxicillin, clavulanate-resistant Haemophilus influenzae expressing beta-lactamase assessed as post-antibiotic sub-MIC effect at 0.2 times MIC concentration pretreated with 6 times MIC concentration for 1 hr followed by 1:1000 dilution by viable plate count method; format: functional
Escherichia coli = assay: Antibacterial activity against Escherichia coli assessed as post-antibiotic sub-MIC effect at 0.2 times MIC concentration pretreated with 6 times MIC concentration for 1 hr followed by 1:1000 dilution by viable plate count method; format: functional
Klebsiella pneumoniae [5] = assay: Antibacterial activity against Klebsiella pneumoniae assessed as post-antibiotic sub-MIC effect at 0.2 times MIC concentration pretreated with 10 times MIC concentration for 1 hr followed by 1:1000 dilution by viable plate count method; format: functional
Enterobacter cloacae [6] = assay: Antibacterial activity against Enterobacter cloacae assessed as post-antibiotic sub-MIC effect at 0.2 times MIC concentration pretreated with 10 times MIC concentration for 1 hr followed by 1:1000 dilution by viable plate count method; format: functional
Enterobacter cloacae [7] = assay: Antibacterial activity against Enterobacter cloacae assessed as post-antibiotic sub-MIC effect at 0.2 times MIC concentration pretreated with 2 times MIC concentration for 1 hr followed by 1:1000 dilution by viable plate count method; format: functional
Streptococcus pneumoniae [8] = assay: Antibacterial activity against penicillin-susceptible Streptococcus pneumoniae assessed as sub-MIC effect at 0.3 times MIC concentration incubated for 1 hr by viable plate count method; format: functional
Streptococcus pneumoniae [9] = assay: Antibacterial activity against penicillin-intermediate Streptococcus pneumoniae assessed as sub-MIC effect at 0.3 times MIC concentration incubated for 1 hr by viable plate count method; format: functional
Staphylococcus aureus [10] = assay: Antibacterial activity against vancomycin-sensitive methicillin-resistant Staphylococcus aureus assessed as sub-MIC effect at 0.3 times MIC concentration incubated for 1 hr by viable plate count method; format: functional
Haemophilus influenzae [11] = assay: Antibacterial activity against beta-lactamase deficient and ampicillin-resistant Haemophilus influenzae assessed as sub-MIC effect at 0.3 times MIC concentration incubated for 1 hr by viable plate count method; format: functional
Staphylococcus aureus [12] = assay: Antibacterial activity against vancomycin-intermediate methicillin-resistant Staphylococcus aureus assessed as post-antibiotic sub-MIC effect at 0.3 times MIC concentration pretreated with 10 times MIC concentration for 1 hr followed by 1:1000 dilution by viable plate count method; format: functional
Enterobacter cloacae [13] = assay: Antibacterial activity against Enterobacter cloacae assessed as post-antibiotic sub-MIC effect at 0.3 times MIC concentration pretreated with 2 times MIC concentration for 1 hr followed by 1:1000 dilution by viable plate count method; format: functional
Acinetobacter baumannii [14] = assay: Antibacterial activity against Acinetobacter baumannii assessed as post-antibiotic sub-MIC effect at 0.3 times MIC concentration pretreated with 10 times MIC concentration for 1 hr followed by 1:1000 dilution by viable plate count method; format: functional
Staphylococcus aureus [15] = assay: Antibacterial activity against vancomycin-intermediate methicillin-resistant Staphylococcus aureus assessed as sub-MIC effect at 0.4 times MIC concentration incubated for 1 hr by viable plate count method; format: functional
Enterococcus faecalis [16] = assay: Antibacterial activity against vancomycin-sensitive Enterococcus faecalis assessed as sub-MIC effect at 0.4 times MIC concentration incubated for 1 hr by viable plate count method; format: functional
Enterococcus faecalis [17] = assay: Antibacterial activity against vancomycin-resistant Enterococcus faecalis assessed as sub-MIC effect at 0.4 times MIC concentration incubated for 1 hr by viable plate count method; format: functional
Haemophilus influenzae [18] = assay: Antibacterial activity against amoxicillin, clavulanate-resistant Haemophilus influenzae expressing beta-lactamase assessed as sub-MIC effect at 0.4 times MIC concentration incubated for 1 hr by viable plate count method; format: functional
Haemophilus influenzae [19] = assay: Antibacterial activity against amoxicillin, clavulanate-resistant Haemophilus influenzae expressing beta-lactamase assessed as post-antibiotic sub-MIC effect at 0.4 times MIC concentration pretreated with 10 times MIC concentration for 1 hr followed by 1:1000 dilution by viable plate count method; format: functional
Haemophilus influenzae [20] = assay: Antibacterial activity against amoxicillin, clavulanate-resistant Haemophilus influenzae expressing beta-lactamase assessed as post-antibiotic sub-MIC effect at 0.3 times MIC concentration pretreated with 10 times MIC concentration for 1 hr followed by 1:1000 dilution by viable plate count method; format: functional
Acinetobacter baumannii [21] = assay: Antibacterial activity against multidrug-resistant Acinetobacter baumannii producing OXA-24 and OXA-51 beta-lactamases assessed as sub-MIC effect at 0.2 times MIC concentration incubated for 1 hr by viable plate count method; format: functional
Klebsiella pneumoniae [22] = assay: Antibacterial activity against Klebsiella pneumoniae assessed as sub-MIC effect at 0.2 times MIC concentration incubated for 1 hr by viable plate count method; format: functional
Staphylococcus aureus [23] = assay: Antibacterial activity against vancomycin-intermediate methicillin-resistant Staphylococcus aureus assessed as sub-MIC effect at 0.2 times MIC concentration incubated for 1 hr by viable plate count method; format: functional
Streptococcus pneumoniae [24] = assay: Antibacterial activity against penicillin-susceptible Streptococcus pneumoniae assessed as sub-MIC effect at 0.2 times MIC concentration incubated for 1 hr by viable plate count method; format: functional
Acinetobacter baumannii [25] = assay: Antibacterial activity against multidrug-resistant Acinetobacter baumannii producing OXA-24 and OXA-51 beta-lactamases assessed as post antibiotic effect at 10 times MIC concentration incubated for 1 hr measured after 1:1000 dilution by viable plate count method; format: functional
Enterococcus faecalis [26] = assay: Antibacterial activity against vancomycin-resistant Enterococcus faecalis assessed as post antibiotic effect at 10 times MIC concentration incubated for 1 hr measured after 1:1000 dilution by viable plate count method; format: functional
Staphylococcus aureus [27] = assay: Antibacterial activity against vancomycin-intermediate methicillin-resistant Staphylococcus aureus assessed as post antibiotic effect at 10 times MIC concentration incubated for 1 hr measured after 1:1000 dilution by viable plate count method; format: functional
Streptococcus pneumoniae [28] = assay: Antibacterial activity against penicillin-intermediate Streptococcus pneumoniae assessed as post antibiotic effect at 10 times MIC concentration incubated for 1 hr measured after 1:1000 dilution by viable plate count method; format: functional
Acinetobacter baumannii [29] = assay: Antibacterial activity against Acinetobacter baumannii by macrodilution method; format: functional
Staphylococcus aureus [30] = assay: Antibacterial activity against vancomycin-intermediate methicillin-resistant Staphylococcus aureus by macrodilution method; format: functional
Streptococcus pneumoniae [31] = assay: Antibacterial activity against penicillin-resistant Streptococcus pneumoniae by macrodilution method; format: functional
Acinetobacter baumannii [32] = assay: Antibacterial activity against Acinetobacter baumannii assessed as post-antibiotic sub-MIC effect at 0.4 times MIC concentration pretreated with 6 times MIC concentration for 1 hr followed by 1:1000 dilution by viable plate count method; format: functional
[33] = Half life in patient serum at 100 mg, iv followed by 50 mg every 12 hrs after 60 mins post dose; format: ADME, organism-based; conditions: human

`CN(C)c1cc(NC(=O)CNC(C)(C)C)c(O)c2c1C[C@H]1C[C@H]3[C@H](N(C)C)C(O)=C(C(N)=O)C(=O)[C@@]3(O)C(O)=C1C2=O` [TIGECYCLINE] showed a PAE (Streptococcus pneumoniae [1]) of 6.1 h, a PAE (Streptococcus pneumoniae [2]) of 6.7 h and a PAE (Enterococcus faecalis [3]) of 7.6 h. For the same compound, the PAE (Haemophilus influenzae [4]) was 3.9 h, the PAE (Escherichia coli) was 1.9 h and the PAE (Klebsiella pneumoniae [5]) was 1.9 h. For the same compound, the PAE (Enterobacter cloacae [6]) was 3.6 h, the PAE (Enterobacter cloacae [7]) was 2.9 h and the PAE (Streptococcus pneumoniae [8]) was 0 h. The PAE (Streptococcus pneumoniae [9]) was 5.7 h, the PAE (Staphylococcus aureus [10]) was 0.2 h and the PAE (Haemophilus influenzae [11]) was 0.8 h. It also gave a PAE (Staphylococcus aureus [12]) of 9.9 h, a PAE (Enterobacter cloacae [13]) of 4.9 h and a PAE (Acinetobacter baumannii [14]) of 11.2 h. The PAE (Staphylococcus aureus [15]) was 2.9 h, the PAE (Enterococcus faecalis [16]) was 1.8 h and the PAE (Enterococcus faecalis [17]) was 0.4 h. It also gave a PAE (Haemophilus influenzae [18]) of 1.9 h, a PAE (Haemophilus influenzae [19]) of 7.9 h and a PAE (Haemophilus influenzae [20]) of 5.4 h. For the same compound, the PAE (Acinetobacter baumannii [21]) was 0.4 h, the PAE (Klebsiella pneumoniae [22]) was 0.1 h and the PAE (Staphylococcus aureus [23]) was 2 h. It also gave a PAE (Streptococcus pneumoniae [24]) of 0 h, a PAE (Acinetobacter baumannii [25]) of 1.3 h and a PAE (Enterococcus faecalis [26]) of 6 h. The PAE (Staphylococcus aureus [27]) was 4 h, the PAE (Streptococcus pneumoniae [28]) was 1.9 h and the MIC (Acinetobacter baumannii [29]) was 0.12 µg/mL (≈ 0.205 µM). For the same compound, the MIC (Staphylococcus aureus [30]) was 0.12 µg/mL (≈ 0.205 µM), the MIC (Streptococcus pneumoniae [31]) was 0.03 µg/mL (≈ 0.0512 µM) and the PAE (Acinetobacter baumannii [32]) was over 11.2 h. For the same compound, the half-life [33] was 40 h.
